In ChEMBL document CHEMBL1201862, “PubChem BioAssay data set” (2004):
Active and inactive are the calls of the source. Rule as the data show it: actives have a measured IC50 and inactives only a lower limit.

Target: Envelope glycoprotein gp160 (Human immunodeficiency virus 1, UniProt Q6QLK5)
Assay: cell-free HIV fusion peptide-binding blockers – biochemical, uHTS, fluorescence dequenching, […] (AID 1986)

Sequence of Envelope glycoprotein gp160 (Q6QLK5 whole entry, the tested form may be a part): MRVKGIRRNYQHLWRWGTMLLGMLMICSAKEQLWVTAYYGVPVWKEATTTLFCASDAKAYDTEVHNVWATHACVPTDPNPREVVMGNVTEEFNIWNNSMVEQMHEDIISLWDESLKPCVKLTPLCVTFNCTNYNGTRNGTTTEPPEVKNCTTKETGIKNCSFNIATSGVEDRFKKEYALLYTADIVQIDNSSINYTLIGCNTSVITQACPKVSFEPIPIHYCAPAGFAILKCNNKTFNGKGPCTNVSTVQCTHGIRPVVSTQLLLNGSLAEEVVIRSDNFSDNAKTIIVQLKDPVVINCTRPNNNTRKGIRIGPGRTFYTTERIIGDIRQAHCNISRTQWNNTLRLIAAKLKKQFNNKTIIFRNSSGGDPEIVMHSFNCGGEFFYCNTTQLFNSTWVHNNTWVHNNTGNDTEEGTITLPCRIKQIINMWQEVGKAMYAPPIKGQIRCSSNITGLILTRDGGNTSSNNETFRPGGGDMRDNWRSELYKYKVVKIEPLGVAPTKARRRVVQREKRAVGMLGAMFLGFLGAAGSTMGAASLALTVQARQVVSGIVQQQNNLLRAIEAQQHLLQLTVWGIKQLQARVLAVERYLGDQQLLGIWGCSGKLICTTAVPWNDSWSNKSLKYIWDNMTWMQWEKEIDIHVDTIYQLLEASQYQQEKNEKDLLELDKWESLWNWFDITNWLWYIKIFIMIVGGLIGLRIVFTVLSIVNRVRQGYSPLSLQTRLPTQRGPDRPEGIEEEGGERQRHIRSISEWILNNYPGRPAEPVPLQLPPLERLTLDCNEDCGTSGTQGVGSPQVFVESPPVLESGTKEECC

COc1cc(/C=C(\C#N)c2nc3ccccc3s2)cc([N+](=O)[O-])c1O
IC50: 8.88 µM (active)
